This note sets out measurements from patent US20250282768A1 (Janssen Pharmaceutica NV, priority 2022, published 2025).

Structures are written as SMILES. Some results are limits rather than exact numbers.

This experiment has as its system p-IKKa levels in L363 (NIK translocated multiple myeloma) cells. The experiment can be described thus: Assay 2: Effect of compounds on p-IKKa levels in L363 (NIK translocated multiple myeloma) cells. In kind it is cell-based. To be noted: Homo sapiens, L-363, 6 h, read-out: Assay 2 IC50 (nM), p-IKKa (Ser 176/180) in BAFF stimulated L363 cells with MG132, 6 h; average if tested more than once. The procedure, abridged:
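Read-out is p-IKKa Ser176/180 by AlphaLISA SureFire in lysates. Cells were BAFF-primed (250 ng/ml) overnight or left unstimulated, then exposed 6 h at 37 °C to compound with MG132 (10 μM), 0.3% DMSO. IC50 from sigmoidal curve fit, normalized between stimulated and unstimulated controls.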
Take `CCC(Nc1nccc(-c2cccc(-c3cc([C@]4(O)CCN(C)C4=O)on3)n2)n1)c1ccn(CC)n1` (stereo partly drawn) [Example 391, (3R)-3-(3-(6-(2-((1-(1-Ethyl-1H-pyrazol-3-yl)propyl)amino)pyrimidin-4-yl)pyridin-2-yl)isoxazol-5-yl)-3-hydroxy-1-methylpyrrolidin-2-one]: the IC50 was above 500 nM. In the case of `COc1cn(C)nc1C(C)Nc1nccc(-c2cccc(-c3cc([C@]4(O)CCN(C)C4=O)on3)n2)n1` (stereo partly drawn) [Example 392, (3R)-3-Hydroxy-3-(3-(6-(2-((1-(4-methoxy-1-methyl-1H-pyrazol-3-yl)ethyl)amino)pyrimidin-4-yl)pyridin-2-yl)isoxazol-5-yl)-1-methylpyrrolidin-2-one] it was above 500 nM. In the case of `C[C@@H](Nc1nccc(-c2cccc(-c3cc([C@]4(O)CCN(C)C4=O)on3)n2)n1)c1cn2ccccc2n1` [Example 393, (R)-3-Hydroxy-3-(3-(6-(2-(((R)-1-(imidazo[1,2-a]pyridin-2-yl)ethyl)amino)pyrimidin-4-yl)pyridin-2-yl)isoxazol-5-yl)-1-methylpyrrolidin-2-one] it was 50 to 500 nM. Regarding `C[C@H](Nc1nccc(-c2cccc(-c3cc([C@]4(O)CCN(C)C4=O)on3)n2)n1)c1cn2ccccc2n1` [Example 394, (R)-3-Hydroxy-3-(3-(6-(2-(((S)-1-(imidazo[1,2-a]pyridin-2-yl)ethyl)amino)pyrimidin-4-yl)pyridin-2-yl)isoxazol-5-yl)-1-methylpyrrolidin-2-one], the IC50 was above 500 nM.

Take `CC(Nc1nccc(-c2cccc(-c3cc([C@]4(O)CCN(C)C4=O)on3)n2)n1)c1nnc2ncccn12` (stereo partly drawn) [Example 395, (3R)-3-(3-(6-(2-((1-([1,2,4]Triazolo[4,3-a]pyrimidin-3-yl)ethyl)amino)pyrimidin-4-yl)pyridin-2-yl)isoxazol-5-yl)-3-hydroxy-1-methylpyrrolidin-2-one]: the IC50 was in the range of 50 to 500 nM. Turning to `CN(C)C[C@H](Nc1nccc(-c2cccc(-c3cc([C@]4(O)CCN(C)C4=O)on3)n2)n1)c1ccccc1` [Example 396, (R)-3-(3-(6-(2-(((R)-2-(Dimethylamino)-1-phenylethyl)amino)pyrimidin-4-yl)pyridin-2-yl)isoxazol-5-yl)-3-hydroxy-1-methylpyrrolidin-2-one], the IC50 is above 500 nM.

As for `CN(C)C[C@@H](Nc1nccc(-c2cccc(-c3cc([C@]4(O)CCN(C)C4=O)on3)n2)n1)c1ccccc1` [Example 397, (R)-3-(3-(6-(2-(((S)-2-(Dimethylamino)-1-phenylethyl)amino)pyrimidin-4-yl)pyridin-2-yl)isoxazol-5-yl)-3-hydroxy-1-methylpyrrolidin-2-one], the IC50 is above 500 nM.

Regarding `CN1CC[C@@](O)(c2cc(-c3cccc(-c4ccnc(Nc5nccn5C)n4)n3)no2)C1=O` [Example 398, (R)-3-Hydroxy-1-methyl-3-(3-(6-(2-((1-methyl-1H-imidazol-2-yl)amino)pyrimidin-4-yl)pyridin-2-yl)isoxazol-5-yl)pyrrolidin-2-one], the IC50 was above 500 nM.

With `CN1CC[C@@](O)(c2cc(-c3cccc(-c4ccnc(Nc5cn(CCF)cn5)n4)n3)no2)C1=O` [Example 399, (R)-3-(3-(6-(2-((1-(2-Fluoroethyl)-1H-imidazol-4-yl)amino)pyrimidin-4-yl)pyridin-2-yl)isoxazol-5-yl)-3-hydroxy-1-methylpyrrolidin-2-one], the IC50 was below 50 nM. In the case of `CCn1cc(Nc2nccc(-c3cccc(-n4cc([C@]5(O)CCN(C)C5=O)nn4)n3)n2)c(C)n1` [Example 402, (R)-3-(1-(6-(2-((1-Ethyl-3-methyl-1H-pyrazol-4-yl)amino)pyrimidin-4-yl)pyridin-2-yl)-1H-1,2,3-triazol-4-yl)-3-hydroxy-1-methylpyrrolidin-2-one] it was below 50 nM. In the case of `CN1CC[C@@](O)(c2cn(-c3cccc(-c4ccnc(Nc5cnn(CC(F)(F)F)c5)n4)n3)nn2)C1=O` [Example 403, (R)-3-Hydroxy-1-methyl-3-(1-(6-(2-((1-(2,2,2-trifluoroethyl)-1H-pyrazol-4-yl)amino)pyrimidin-4-yl)pyridin-2-yl)-1H-1,2,3-triazol-4-yl)pyrrolidin-2-one] it was below 50 nM.
